{"source": "paper PMC5218480", "about": "(PLoS ONE, 2017)", "test_system": "MV-4-11 cells", "test": "Gene expression microarray analysis (Affymetrix PrimeView) and GSEA", "type": "cell-based, human", "parameters": "RFU PODN (11730768_x_at) / Fold change /veh PODN (11730768_x_at) / RFU LINC00158 (11744669_a_at) / Fold change /veh LINC00158 (11744669_a_at) / RFU DUSP10 (11751237_a_at) / Fold change /veh DUSP10 (11751237_a_at) / RFU ID3 (11757404_x_at) / Fold change /veh ID3 (11757404_x_at) / RFU PLEKHG5 (11737974_s_at) / Fold change /veh PLEKHG5 (11737974_s_at) / RFU LRRC4B (11730491_at) / Fold change /veh LRRC4B (11730491_at) / RFU GIMAP4 (11747438_a_at) / Fold change /veh GIMAP4 (11747438_a_at) / RFU KRT8 (11758183_x_at) / Fold change /veh KRT8 (11758183_x_at) / RFU CNN1 (11734310_a_at) / Fold change /veh CNN1 (11734310_a_at) / RFU VPS37D (11726825_at) / Fold change /veh VPS37D (11726825_at) / RFU C10orf10 (11716522_x_at) / Fold change /veh C10orf10 (11716522_x_at) / RFU KIR2DL2 /// KIR2DL4 /// KIR2DL5A /// KIR2DL5B /// KIR2DS1 /// KIR2DS2 /// KIR2DS3 /// KIR2DS4 /// KIR3DL3 /// KIR3DL3 /// KIR3DS1 (11738374_at) / Fold change /veh KIR2DL2 /// KIR2DL4 /// KIR2DL5A /// KIR2DL5B /// KIR2DS1 /// KIR2DS2 /// KIR2DS3 /// KIR2DS4 /// KIR3DL3 /// KIR3DL3 /// KIR3DS1 (11738374_at) / RFU C1QL1 (11718748_at) / Fold change /veh C1QL1 (11718748_at) / RFU TMPRSS4 (11747572_a_at) / Fold change /veh TMPRSS4 (11747572_a_at) / RFU HAMP (11756126_x_at) / Fold change /veh HAMP (11756126_x_at) / RFU RNFT2 (11725882_a_at) / Fold change /veh RNFT2 (11725882_a_at) / RFU NR4A2 (11747474_a_at) / Fold change /veh NR4A2 (11747474_a_at) / RFU ABCC12 (11746883_a_at) / Fold change /veh ABCC12 (11746883_a_at) / RFU TMEM136 (11760407_x_at) / Fold change /veh TMEM136 (11760407_x_at) / RFU CLDN22 /// WWC2 (11732394_at) / Fold change /veh CLDN22 /// WWC2 (11732394_at) / RFU HLA-DPB1 (11760878_x_at) / Fold change /veh HLA-DPB1 (11760878_x_at) / RFU SPINT1 (11716480_a_at) / Fold change /veh SPINT1 (11716480_a_at) / RFU GAP43 (11754022_s_at) / Fold change /veh GAP43 (11754022_s_at) / RFU A4GNT (11735810_at) / Fold change /veh A4GNT (11735810_at) / RFU PRB3 (11715151_x_at) / Fold change /veh PRB3 (11715151_x_at) / RFU TUBB4B (11761932_at) / Fold change /veh TUBB4B (11761932_at) / RFU CAPN14 (11732068_a_at) / Fold change /veh CAPN14 (11732068_a_at) / RFU TMCC2 (11721928_a_at) / Fold change /veh TMCC2 (11721928_a_at) / RFU IRGQ (11745062_a_at) / Fold change /veh IRGQ (11745062_a_at) / RFU FAM174B (11720279_a_at) / Fold change /veh FAM174B (11720279_a_at) / RFU TMPRSS4 (11748680_a_at) / Fold change /veh TMPRSS4 (11748680_a_at) / RFU FAM212B (11763350_a_at) / Fold change /veh FAM212B (11763350_a_at) / RFU PLEKHG5 (11743358_a_at) / Fold change /veh PLEKHG5 (11743358_a_at) / RFU ZSCAN30 (11745921_a_at) / Fold change /veh ZSCAN30 (11745921_a_at) / RFU CMKLR1 (11741424_a_at) / Fold change /veh CMKLR1 (11741424_a_at) / RFU LOC101060620 /// MAPK8IP1 (11723275_at) / Fold change /veh LOC101060620 /// MAPK8IP1 (11723275_at) / RFU SPTSSB (11747773_x_at) / Fold change /veh SPTSSB (11747773_x_at) / RFU PRSS12 (11739890_at) / Fold change /veh PRSS12 (11739890_at) / RFU BIN1 (11741810_x_at) / Fold change /veh BIN1 (11741810_x_at) / RFU WNT11 (11732464_a_at) / Fold change /veh WNT11 (11732464_a_at) / RFU C10orf10 (11716521_a_at) / Fold change /veh C10orf10 (11716521_a_at) / RFU C5orf56 (11738089_at) / Fold change /veh C5orf56 (11738089_at) / RFU CYB561 (11721691_x_at) / Fold change /veh CYB561 (11721691_x_at) / RFU ANKRD19P (11752326_a_at) / Fold change /veh ANKRD19P (11752326_a_at) / RFU OR2T12 /// OR2T33 /// OR2T8 (11738714_s_at) / Fold change /veh OR2T12 /// OR2T33 /// OR2T8 (11738714_s_at) / RFU VCAN (11748164_a_at) / Fold change /veh VCAN (11748164_a_at) / RFU JSRP1 (11732532_at) / Fold change /veh JSRP1 (11732532_at) / RFU KRTAP10-11 (11738290_x_at) / Fold change /veh KRTAP10-11 (11738290_x_at) / RFU MYO3A (11730013_a_at) / Fold change /veh MYO3A (11730013_a_at) / RFU EBF3 (11725865_a_at) / Fold change /veh EBF3 (11725865_a_at) / RFU CAMK2N1 (11719241_x_at) / Fold change /veh CAMK2N1 (11719241_x_at) / RFU C5orf56 (11738088_a_at) / Fold change /veh C5orf56 (11738088_a_at) / RFU OLFML3 (11715873_a_at) / Fold change /veh OLFML3 (11715873_a_at) / RFU LOC100653217 /// NTM (11731650_a_at) / Fold change /veh LOC100653217 /// NTM (11731650_a_at) / RFU MAPK11 (11762145_a_at) / Fold change /veh MAPK11 (11762145_a_at) / RFU FIZ1 (11724087_x_at) / Fold change /veh FIZ1 (11724087_x_at) / RFU OASL (11726364_x_at) / Fold change /veh OASL (11726364_x_at) / RFU SOX15 (11748057_x_at) / Fold change /veh SOX15 (11748057_x_at) / RFU CD79A (11719716_a_at) / Fold change /veh CD79A (11719716_a_at) / RFU HIST1H1D (11736915_at) / Fold change /veh HIST1H1D (11736915_at) / RFU CASKIN2 (11723855_a_at) / Fold change /veh CASKIN2 (11723855_a_at) / RFU LOC730098 (11760151_x_at) / Fold change /veh LOC730098 (11760151_x_at) / RFU OR4N2 (11742367_at) / Fold change /veh OR4N2 (11742367_at) / RFU PRRT2 (11749266_a_at) / Fold change /veh PRRT2 (11749266_a_at) / RFU SNX32 (11753110_a_at) / Fold change /veh SNX32 (11753110_a_at) / RFU CDHR5 (11726645_a_at) / Fold change /veh CDHR5 (11726645_a_at) / RFU RCAN1 (11760418_a_at) / Fold change /veh RCAN1 (11760418_a_at) / RFU FAM167A (11723789_a_at) / Fold change /veh FAM167A (11723789_a_at) / RFU FAM26E (11764081_at) / Fold change /veh FAM26E (11764081_at) / RFU ISYNA1 (11749810_s_at) / Fold change /veh ISYNA1 (11749810_s_at) / RFU ACY1 (11761880_at) / Fold change /veh ACY1 (11761880_at) / RFU 11764098_at / Fold change /veh 11764098_at / RFU SAMD14 (11745864_x_at) / Fold change /veh SAMD14 (11745864_x_at) / RFU NPB (11741838_a_at) / Fold change /veh NPB (11741838_a_at) / RFU TMPRSS6 (11731388_a_at) / Fold change /veh TMPRSS6 (11731388_a_at) / RFU KRTAP10-2 (11738614_at) / Fold change /veh KRTAP10-2 (11738614_at) / RFU ARHGAP8 /// PRR5-ARHGAP8 (11727945_x_at) / Fold change /veh ARHGAP8 /// PRR5-ARHGAP8 (11727945_x_at) / RFU KRTAP5-7 /// NADSYN1 (11734609_at) / Fold change /veh KRTAP5-7 /// NADSYN1 (11734609_at) / RFU RASL12 (11751679_a_at) / Fold change /veh RASL12 (11751679_a_at) / RFU CDKN2B (11736163_a_at) / Fold change /veh CDKN2B (11736163_a_at) / RFU PRF1 (11729649_at) / Fold change /veh PRF1 (11729649_at) / RFU, ZNF638 /// ZNF638-IT1 / Fold change vs veh, ZNF638 /// ZNF638-IT1 / RFU, PANK3 / Fold change vs veh, PANK3 / RFU, SH3YL1 / Fold change vs veh, SH3YL1 / RFU, ZEB2 / Fold change vs veh, ZEB2 / RFU, NRIP1 / Fold change vs veh, NRIP1 / RFU, PTTG1IP / Fold change vs veh, PTTG1IP / RFU, CAPN2 / Fold change vs veh, CAPN2 / RFU, MED14 / Fold change vs veh, MED14 / RFU, SNORA58 / Fold change vs veh, SNORA58 / RFU, C1orf63 / Fold change vs veh, C1orf63 / RFU, LRRFIP1 / Fold change vs veh, LRRFIP1 / RFU, NDUFAF7 / Fold change vs veh, NDUFAF7 / RFU, SLC12A2 / Fold change vs veh, SLC12A2 / RFU, IBTK / Fold change vs veh, IBTK / RFU, ESF1 / Fold change vs veh, ESF1 / Fold change vs veh, TMEM50B / RFU, TAOK1 / Fold change vs veh, TAOK1 / RFU, ACBD3 / Fold change vs veh, ACBD3 / RFU, TMA16 / Fold change vs veh, TMA16 / RFU, RWDD3 / Fold change vs veh, RWDD3 / RFU, BCAT1 / Fold change vs veh, BCAT1 / RFU, EDEM3 / Fold change vs veh, EDEM3 / RFU, TMEM33 / Fold change vs veh, TMEM33 / RFU, WDR75 / Fold change vs veh, WDR75 / RFU, AHCTF1 / Fold change vs veh, AHCTF1 / RFU, TFRC / Fold change vs veh, TFRC / RFU, ZDHHC17 / Fold change vs veh, ZDHHC17 / RFU, NOM1 / Fold change vs veh, NOM1 / RFU, ARL8B / Fold change vs veh, ARL8B / RFU, ZBTB11 / Fold change vs veh, ZBTB11 / RFU, TAMM41 / Fold change vs veh, TAMM41 / RFU, KIAA1704 /// LOC100996395 / Fold change vs veh, KIAA1704 /// LOC100996395 / RFU, ING1 / Fold change vs veh, ING1 / RFU, TRMT61B / Fold change vs veh, TRMT61B / RFU, FUBP3 / Fold change vs veh, FUBP3 / RFU, TP53 / Fold change vs veh, TP53 / RFU, TNKS2 / Fold change vs veh, TNKS2 / RFU, ZFP14 / Fold change vs veh, ZFP14 / RFU, ACTR2 / Fold change vs veh, ACTR2 / RFU, PPP3R1 / Fold change vs veh, PPP3R1 / RFU, PIK3R1 / Fold change vs veh, PIK3R1 / RFU, HNRNPA1 / Fold change vs veh, HNRNPA1 / RFU, RNF170 / Fold change vs veh, RNF170 / RFU, ZNF28 / Fold change vs veh, ZNF28 / RFU, RNGTT / Fold change vs veh, RNGTT / RFU, OGT / Fold change vs veh, OGT / RFU, BRD1 / Fold change vs veh, BRD1 / RFU, MARS / Fold change vs veh, MARS / RFU, ZNF655 / Fold change vs veh, ZNF655 / RFU, FAHD1 / Fold change vs veh, FAHD1 / RFU, BDP1 / Fold change vs veh, BDP1 / RFU, LRRCC1 / Fold change vs veh, LRRCC1 / RFU, ARID1A / Fold change vs veh, ARID1A / RFU, ZNF146 / Fold change vs veh, ZNF146 / RFU, ZNF330 / Fold change vs veh, ZNF330 / RFU, GPN3 / Fold change vs veh, GPN3 / RFU, C9orf123 / Fold change vs veh, C9orf123 / RFU, N4BP2L2 / Fold change vs veh, N4BP2L2 / RFU, ARFIP1 / Fold change vs veh, ARFIP1 / RFU, FAM179B / Fold change vs veh, FAM179B / RFU, BCL10 / Fold change vs veh, BCL10 / RFU, UHRF1BP1L / Fold change vs veh, UHRF1BP1L / RFU, BET1 / Fold change vs veh, BET1 / RFU, CNOT2 / Fold change vs veh, CNOT2 / RFU, ZNF268 / Fold change vs veh, ZNF268 / Fold change vs veh, ZNF507 / RFU, DGCR2 / Fold change vs veh, DGCR2 / RFU, WDSUB1 / Fold change vs veh, WDSUB1 / Fold change vs veh, HSP90B1 /// MIR3652 / RFU, ADSS / Fold change vs veh, ADSS / RFU, GK / Fold change vs veh, GK / RFU, ZNF148 / Fold change vs veh, ZNF148 / RFU, TAF9 / Fold change vs veh, TAF9 / RFU, SLC1A5 / Fold change vs veh, SLC1A5 / RFU, SLMO2 / Fold change vs veh, SLMO2 / RFU, ABCC4 / Fold change vs veh, ABCC4 / RFU, LOC101060439 /// RAP1B / Fold change vs veh, LOC101060439 /// RAP1B / RFU, RFX7 / Fold change vs veh, RFX7 / RFU, GTPBP10 / Fold change vs veh, GTPBP10 / RFU, CNEP1R1 / Fold change vs veh, CNEP1R1 / RFU, BIVM-ERCC5 /// ERCC5 / Fold change vs veh, BIVM-ERCC5 /// ERCC5 / RFU, ILF3 / Fold change vs veh, ILF3 / RFU 11762660_at / Fold change /veh 11762660_at / RFU VCAN (11757783_s_at) / Fold change /veh VCAN (11757783_s_at) / RFU DDX43 (11728927_at) / Fold change /veh DDX43 (11728927_at) / RFU KRT8 (11758188_x_at) / Fold change /veh KRT8 (11758188_x_at) / RFU NKD1 (11759106_at) / Fold change /veh NKD1 (11759106_at) / RFU SRD5A1 (11742802_a_at) / Fold change /veh SRD5A1 (11742802_a_at) / RFU TPSAB1 /// TPSB2 (11721975_s_at) / Fold change /veh TPSAB1 /// TPSB2 (11721975_s_at) / RFU GSTM3 (11746129_a_at) / Fold change /veh GSTM3 (11746129_a_at) / RFU IL23R (11737362_x_at) / Fold change /veh IL23R (11737362_x_at) / RFU TMEM51 (11727254_a_at) / Fold change /veh TMEM51 (11727254_a_at) / RFU PIWIL2 (11732686_x_at) / Fold change /veh PIWIL2 (11732686_x_at) / RFU ORM1 (11744905_x_at) / Fold change /veh ORM1 (11744905_x_at) / RFU CCDC152 (11743942_at) / Fold change /veh CCDC152 (11743942_at) / RFU ECM1 (11717891_a_at) / Fold change /veh ECM1 (11717891_a_at) / RFU IL23R (11748794_a_at) / Fold change /veh IL23R (11748794_a_at) / RFU TNFAIP8L3 (11732012_x_at) / Fold change /veh TNFAIP8L3 (11732012_x_at) / RFU MBOAT4 (11741988_at) / Fold change /veh MBOAT4 (11741988_at) / RFU 11764193_at / Fold change /veh 11764193_at / RFU TMEM53 (11763286_at) / Fold change /veh TMEM53 (11763286_at) / RFU MAGEB2 (11727129_at) / Fold change /veh MAGEB2 (11727129_at) / RFU TMEM200A (11744735_a_at) / Fold change /veh TMEM200A (11744735_a_at) / RFU CCDC152 (11751479_a_at) / Fold change /veh CCDC152 (11751479_a_at) / RFU FAM211A (11726209_a_at) / Fold change /veh FAM211A (11726209_a_at) / RFU RGS16 (11746705_a_at) / Fold change /veh RGS16 (11746705_a_at) / RFU VCAN (11755009_s_at) / Fold change /veh VCAN (11755009_s_at) / RFU RHOB (11743442_s_at) / Fold change /veh RHOB (11743442_s_at) / RFU RGS16 (11720943_a_at) / Fold change /veh RGS16 (11720943_a_at) / RFU RGS16 (11720944_at) / Fold change /veh RGS16 (11720944_at) / RFU, VPS4B / Fold change vs veh, VPS4B / RFU, CREB1 / Fold change vs veh, CREB1 / RFU, DNAJC13 / Fold change vs veh, DNAJC13 / RFU, GNAQ / Fold change vs veh, GNAQ / RFU, CDK5R1 / Fold change vs veh, CDK5R1 / RFU, ZRANB3 / Fold change vs veh, ZRANB3 / RFU, CUL4A / Fold change vs veh, CUL4A / RFU, CCNY / Fold change vs veh, CCNY / RFU, UFL1 / Fold change vs veh, UFL1 / RFU, COG3 / Fold change vs veh, COG3 / RFU, DIAPH2 / Fold change vs veh, DIAPH2 / RFU, SKA2 / Fold change vs veh, SKA2 / RFU, AFF3 / Fold change vs veh, AFF3 / RFU, LMF1 / Fold change vs veh, LMF1 / RFU, IPO11 / Fold change vs veh, IPO11 / RFU, DFFB / Fold change vs veh, DFFB / RFU, FOXP1 / Fold change vs veh, FOXP1 / RFU, CARD8 / Fold change vs veh, CARD8 / RFU, STRN3 / Fold change vs veh, STRN3 / RFU, ADK / Fold change vs veh, ADK / RFU, RASSF2 / Fold change vs veh, RASSF2 / RFU, WIPF1 / Fold change vs veh, WIPF1 / RFU, LARP1B / Fold change vs veh, LARP1B / RFU, RASA1 / Fold change vs veh, RASA1 / RFU, RB1 / Fold change vs veh, RB1 / RFU, PPFIA1 / Fold change vs veh, PPFIA1 / RFU, MAT2A / Fold change vs veh, MAT2A / RFU, CCT5 / Fold change vs veh, CCT5 / RFU, WDR92 / Fold change vs veh, WDR92 / RFU, CUX1 / Fold change vs veh, CUX1 / RFU, TTC7A / Fold change vs veh, TTC7A / RFU, TMEM135 / Fold change vs veh, TMEM135 / RFU, DEPTOR / Fold change vs veh, DEPTOR / RFU, CPM / Fold change vs veh, CPM / RFU, DNAJB6 / Fold change vs veh, DNAJB6 / RFU, CACNA2D3 / Fold change vs veh, CACNA2D3 / RFU, DTX4 / Fold change vs veh, DTX4 / RFU, TFCP2 / Fold change vs veh, TFCP2 / RFU, GMCL1 /// GMCL1P1 / Fold change vs veh, GMCL1 /// GMCL1P1 / RFU, AEBP2 / Fold change vs veh, AEBP2 / RFU, SNHG1 /// SNORD22 /// SNORD25 /// SNORD26 /// SNORD27 /// SNORD28 /// SNORD29 /// SNORD31 / Fold change vs veh, SNHG1 /// SNORD22 /// SNORD25 /// SNORD26 /// SNORD27 /// SNORD28 /// SNORD29 /// SNORD31 / Fold change (Aza/veh), C12orf56 (ProbeSet 11735607_a_at) / Fold change (ACY-1035/veh), C12orf56 (ProbeSet 11735607_a_at) / Fold change (Aza/veh), FGFR1OP (ProbeSet 11751329_s_at) / Fold change (ACY-1035/veh), FGFR1OP (ProbeSet 11751329_s_at) / Fold change (Aza/veh), VPS36 (ProbeSet 11739960_a_at) / Fold change (ACY-1035/veh), VPS36 (ProbeSet 11739960_a_at) / RFU SYPL1 (11715823_x_at) / Fold change /veh SYPL1 (11715823_x_at) / RFU IGFBP7 (11715501_s_at) / Fold change /veh IGFBP7 (11715501_s_at) / RFU REEP3 (11722064_at) / Fold change /veh REEP3 (11722064_at) / RFU IGLL1 (11728026_x_at) / Fold change /veh IGLL1 (11728026_x_at): dose or concentration left out as unconfirmed", "conditions": "ProbeSet 11725141_a_at; LIST B"}
{"compound": "Nc1ccc(-c2cccs2)cc1NC(=O)c1ccc2c(c1)cc(C1CC1)n2CCN1CCOCC1", "note": "[ACY-1035]", "values": [{"measurement": "Fold change vs veh, FUBP3", "result": 0.87}]}
